{"source": "patent US20240317689A1", "about": "“POTASSIUM CHANNEL MODULATOR, COMPOSITION AND APPLICATION” (NEUSHEN THERAPEUTICS (SHANGHAI) CO., LTD, priority 2021, published 2024)", "key": {"[1]": {"biological_target": "T1, KCNQ2/3 (Homo sapiens, UniProt O43525+O43526)", "T1 construct": "expressed in transfected cells; host or cells: CHO cells (hKCNQ-CHO)", "experiment": "Half-maximal activation voltage left shift assay (whole-cell patch clamp, hKCNQ-CHO cells)", "format": "cell-based", "protocol": "Example 65: Half-Maximal Activation Voltage Left Shift Assay\nhKCNQ-CHO cells were cultured at 37° C. in a humidified environment of 5% CO2.\n• a) Extracellular fluid (mM): NaCl 145, KCl 4, CaCl2 2, MgCl2 1, Glucose 10, HEPES 10. The pH value of the extracellular fluid was adjusted to 7.4 with NaOH, and the osmotic pressure was adjusted to about 295 mOsm. • b) Intracellular fluid (mM): KOH 31.25, KCl 120, EGTA 10, MgCl2 1.75, CaCl2 5.374, HEPES 10, Na-ATP 4. The pH value of the intracellular fluid was adjusted to 7.4 with HCl, and the osmotic pressure was adjusted to about 285 mOsm. • c) The extracellular fluid should be prepared once a week, and the intracellular fluid should be aliquoted and stored at −20° C. after preparation.\nThe model positive reference compound Retigabine (RTG) was dissolved with 100% DMSO and configured as a 10 mM working solution. The test compounds were dissolved with 100% DMSO and configured as a 10 mM working solution. The final concentration of DMSO in the test solution should be less than 0.3%.\nWhole-cell patch clamp was performed at room temperature. The electrical signals recorded with the EPC 10 USB amplifier (HEKA Elektronik, Germany) were filtered by a 3 kHz low-pass filter, and finally recorded in PatchMaster 2×90.5 software (HEKA Elektronik, Germany). At this step, the quality control standard was that the cell high-resistance sealing was greater than 500 MOhms, and the detection current was greater than 0.4 nA.\nThe recording electrodes were pulled out and polished with a vertical puller (NARISHIGE PC-10, Japan) using a borosilicate glass capillary (GC150tF-10, Harvard Apparatus Co., UK). At this step, the quality control standard was that the electrode resistance was between 2 MΩ and 5 MΩ.\nDuring the recording process of the whole-cell patch clamp, a continuous perfusion system (BT100-2J, LongerPump, China) was used to continuously perfuse the extracellular fluid. The perfusion system was installed on the stage of an upright microscope (FN-S2N, Nikon, Japan), and the perfusion head was manually positioned under the microscope.\nThe voltage command for detecting the amplitude of hKCNQ current was as follows: the cell was clamped from a potential of −80 mV, stepped to −120 mV, and then clamped continuously at increasing voltages of 10 mV per sweep until +60 mV, held for 1500 ms; and then the clamping voltage was lowered to −120 my and held for 500 ms; finally, the voltage returned to the clamping potential of −80 mV. The detection voltage command was repeated every 15,000 milliseconds, and the command was continuously executed during the compound test. The half-maximal voltage of the cell's hKCNQ was obtained by nonlinear fitting of the current amplitude at different clamping potentials (−120 mV to +60 mV).\nData analysis was performed using PatchMaster 2×90.5 software (HEKA Elektronik, Germany) and Excel 2013 (Microsoft, USA) software. For each cell's patch clamp recording, the half-maximal voltage (V½-test) of hKCNQ corresponding to the test compound concentration should be obtained. The left-shifted half-maximal voltage value ΔV½ (V1/2 Shift (mV)) was obtained by subtracting the half-maximal voltage of hKCNQ before compound action (V½-control) from V½-test."}, "[2]": {"system": "MES-induced epilepsy in mice", "experiment": "MES mouse epilepsy model", "format": "in vivo", "conditions": "5 mpk, electrical stimulation 30 minutes after administration", "protocol": "Example 67: MES Mouse Epilepsy Model\n• 1. The mice (10 mice per group) were transferred to the operating room to adapt to the environment 30 minutes before the experiment. • 2. The mice were administered the test compounds or positive drug (Valproate) at a specific time point. 30 minutes after the administration of Valproate or 30 minutes after the administration of the test compounds, electrical stimulation was given with ear electrodes. The stimulation parameters were a square wave with a total duration of 0.8 seconds, a frequency of 50 Hz, and an amplitude of 50 mA with an interval of 10 msec. • 3. The number and duration of hind limb tonic extension of the animal within 1 minute after the completion of the electrical stimulation was recorded, and the possible death and time of death were also recorded. • 4. After administration, the possible side effects induced by the drug were observed and recorded, and the side effects are divided into four levels: • None: Normal • Mild sedation • Moderate sedation • Severe sedation"}, "[3]": {"experiment": "Blood-brain barrier permeability assay in mice (brain concentration after intragastric administration)", "format": "in vivo", "conditions": "5 mg/kg, brain tissue homogenate", "protocol": "Administration Dosage of 5 mg/kg\nThe drug was prepared in proportion (solvent: 5% DMSO+5% Solutol+90% normal saline) to make a solution with a concentration of 0.5 mg/mL, and the mice were subjected to intragastric administration at 0.1 mL/10 g, with 3 mice per group in parallel.\nAfter the mice were administered, the mice were anesthetized and perfused with normal saline through the heart, dissected to collect the brain tissue. The brain tissue was washed with normal saline, dried, weighed, and transferred to a 2 mL EP tube, added with normal saline according to brain tissue: normal saline=1:1 (g/mL). 3 steel balls were put in each tube on a tissue grinder, and the tissue mixture was homogenized at 60 HZ for 60 s, centrifuged at 15000 rpm at 4° C. for 10 minutes, and the supernatant was taken, which was the brain tissue homogenate.\nThe drug stock solution (0.5 mg/mL) was taken and diluted with acetonitrile to form standard curve working solutions with concentrations of 50, 100, 200, 500, 1000, 2000, 5000, 10000, and 20000 ng/mL, and quality control working solutions with concentrations of 100, 2000, and 10000 ng/mL. 47.5 μL of blank matrix was taken respectively, and 2.5 μL of standard curve working solution and 2.5 μL of quality control working solution were added thereto to prepare standard curve samples with concentrations of 2.5, 5, 10, 25, 50, 100, 250, 500, and 1000 ng/mL and quality control samples with concentrations of 5, 100, and 500 ng/mL. 200 μL of acetonitrile (containing the internal standard of 5 ng/mL of Loratadine) was added thereto respectively, subjected to vortex oscillation for 3 minutes, centrifuged at 15,000 rpm and 4° C. for 10 minutes, and the supernatant was taken and analyzed by LC-MS/MS to obtain a standard curve.\n50 μL of brain tissue homogenate sample was taken, added with 200 μL of acetonitrile (containing the internal standard of 5 ng/mL of Loratadine), subjected to vortex oscillation for 3 minutes, centrifuged at 15,000 rpm and 4° C. for 10 minutes, and the supernatant was taken for LC-MS/MS analysis. The standard curve was combined with the analysis to obtain the corresponding concentrations in the brain."}, "[4]": {"biological_target": "T2, KCNQ2/3 potassium ion channel (Homo sapiens, UniProt O43525+O43526)", "T2 construct": "expressed in transfected cells; host or cells: CHO cells (hKCNQ-CHO)", "experiment": "KCNQ2/3 potassium ion channel activation assay (whole-cell patch clamp, hKCNQ-CHO cells)", "format": "cell-based", "conditions": "read-out: Enhancment % (current enhancement multiple); for activation at 0.05 µM: test concentration 0.05 μM; for activation at 3 µM: test concentration 3 μM", "method_in_brief": "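Whole-cell patch clamp at room temperature in hKCNQ-CHO cells, pH 7.4 bath and pipette solutions, DMSO <0.3%. Enhancement = (Itest − Icontrol)/Icontrol.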"}}}
{"smiles": "Cc1cc(N2CCCc3cc(OC(C)C(F)(F)F)ccc3C2)cc(C)c1NC(=O)CC(C)(C)C", "note": "(centres unmarked) [Compound 008, N-(2,6-dimethyl-4-(7-((1,1,1-trifluoropropan-2-yl)oxy)-1,3,4,5-tetrahydro-2H-benzo[c]azepin-2-yl)phenyl)-3,3-dimethylbutanamide]", "values": [{"measurement": "V1/2 Shift (mV)", "setting": "[1]; test concentration 50 nM", "value": "−23.38", "unit": "mV"}, {"measurement": "V1/2 Shift (mV)", "setting": "[1]; test concentration 300 nM", "value": "−47.60", "unit": "mV"}, {"measurement": "Protection rate for tonic extension", "setting": "[2]", "value": 90, "unit": "%"}, {"measurement": "Concentrations in the brain", "setting": "[3]", "value": 166.1, "unit": "ng/g"}, {"measurement": "activation at 0.05 µM", "setting": "[4]", "value": "50 to 100", "unit": "%"}, {"measurement": "activation at 3 µM", "setting": "[4]", "value": "> 100", "unit": "%"}]}
{"smiles": "Cc1cc(N2CCCc3cc(OC(C)C)c(F)cc3C2)cc(C)c1NC(=O)CC(C)(C)C", "note": "[Compound 035, N-(4-(8-fluoro-7-isopropoxy-1,3,4,5-tetrahydro-2H-benzo[c]azepin-2-yl)-2,6-dimethylphenyl)-3,3-dimethylbutanamide]", "values": [{"measurement": "V1/2 Shift (mV)", "setting": "[1]; test concentration 50 nM", "value": "−16.46", "unit": "mV"}, {"measurement": "Protection rate for tonic extension", "setting": "[2]", "value": 100, "unit": "%"}, {"measurement": "Concentrations in the brain", "setting": "[3]", "value": 257, "unit": "ng/g"}, {"measurement": "activation at 0.05 µM", "setting": "[4]", "value": "50 to 100", "unit": "%"}, {"measurement": "activation at 3 µM", "setting": "[4]", "value": "> 100", "unit": "%"}]}
